Data reported in ChEMBL document CHEMBL1201862, “PubChem BioAssay data set” (2004).
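How tested: cells in 96-well plates exposed to compound for 48 hours at five concentrations. Here, GI50 denotes the concentration required for 50% inhibition of growth.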 Calls of active or inactive are those of the source. Cut-off read from the data, not from the text of the source: active = GI50 up to about 1.1 µM and inactive = higher.

Tests used:
Assay in all cases: growth of human tumour cells (NCI), 48 h
DLD-1 = tested on: DLD-1
DMS-273 = tested on: DMS-273
KM-20L2 = tested on: KM-20L2
RXF 631 = tested on: RXF 631
XF498 = tested on: XF498
LXFL 529 = tested on: LXFL 529
SNB-78 = tested on: SNB-78
HOP-18 = tested on: HOP-18
M19-MEL = tested on: M19-MEL

Measured: GI50

CCOC(=O)C(C(C)=O)C1CC=CC1 (stereo not drawn)
inactive: DLD-1 > 100 µM | DMS-273 > 100 µM | KM-20L2 > 100 µM | RXF 631 > 100 µM | XF498 > 100 µM | LXFL 529 > 100 µM | SNB-78 > 100 µM

O=C1CCCCN1
inactive: DLD-1 879 µM | DMS-273 > 1120 µM | HOP-18 232 µM | KM-20L2 > 1120 µM | M19-MEL > 403 µM | XF498 89.3 µM | SNB-78 > 1120 µM

O=c1[nH]c(=O)n(C2CC(O)C(CO)O2)cc1C#Cc1cc(C(F)(F)F)cc(C(F)(F)F)c1 (stereo not drawn)
inactive: DLD-1 > 29.4 µM | KM-20L2 > 45.4 µM | M19-MEL > 31.3 µM | RXF 631 21.3 µM | XF498 21 µM | LXFL 529 > 30.1 µM | SNB-78 50.7 µM

O=NN1C(c2ccccc2)CNC(=O)CC1c1ccccc1 (stereo not drawn)
inactive: DLD-1 44.2 µM | DMS-273 27.4 µM | HOP-18 > 100 µM | KM-20L2 25.3 µM | M19-MEL 50.1 µM | SNB-78 > 91.4 µM

O=C1CSC(C(/N=N/c2ccc(Cl)cc2)c2nc3ccccc3[nH]2)=N1 (stereo not drawn)
inactive: DLD-1 65.5 µM | DMS-273 60.4 µM | KM-20L2 > 100 µM | M19-MEL 85.7 µM | XF498 17.8 µM | LXFL 529 52.6 µM
